Blank lines part the entries; values can stand above or below the compound they belong to. Calls of active or inactive are those of the source. No cut-off for these calls is given here.
Assays:
[1] = tested on: HeLa; test: Inhibition of F1F0-ATP synthase subunit C in human HeLa cells assessed as reduction of ionomycin-induced Ca2+ mediated mPTP opening at 1 uM preincubated for 30 secs followed by ionomycin addition by calcein-cobalt based assay relative to control; assay type: cell-based
[2] = species: Mus musculus; test: Inhibition of Inhibition of F1F0-ATP synthase subunit C in SV129 mouse liver mitochondria assessed as reduction of Ca2+ induced mPTP opening by measuring reduction in mitochondrial swelling at 1 uM measured after 10 mins relative to control
[3] = tested on: HeLa; test: Effect on basal mitochondrial membrane potential in human HeLa cells by TMRM dye based fluorescence assay; assay type: ADME, cell-based
[4] = tested on: HeLa; test: Effect on mitochondrial calcium uptake in human HeLa cells after 24 hrs by aequorin luminometric analysis; assay type: ADME, cell-based
[5] = tested on: HeLa; test: Effect on number of mitochondria in human HeLa cells after 24 hrs by mtCherry staining based microscopic analysis; assay type: ADME, cell-based
[6] = tested on: HeLa; test: Effect on network volume of mitochondria in human HeLa cells after 24 hrs by calcin staining based microscopic analysis; assay type: ADME, cell-based
[7] = tested on: HeLa; test: Cytotoxicity against human HeLa cells assessed as reduction in cell viability at 1 to 10 uM after 24 to 48 hrs by MTT assay; assay type: cell-based
[8] = tested on: HeLa; test: Cytotoxicity against human HeLa cells assessed as reduction in cell viability at 1 to 10 uM after 72 hrs by MTT assay; assay type: cell-based
[9] = tested on: HeLa; test: Inhibition of F1F0-ATP synthase subunit C in human HeLa cells assessed as reduction of cytC release at 1 uM after 5 mins by immunoblot analysis; assay type: cell-based
[10] = tested on: HeLa; test: Inhibition of F1F0-ATP synthase subunit C in human HeLa cells assessed as reduction in apoptosis by TUNEL assay; assay type: cell-based
[11] = tested on: HeLa; test: Reduction in mitochondrial ATP content in human HeLa cells expressing mitochondrially targeted Photinus pyralis luciferase at 1 uM by luciferin-luciferase assay; assay type: ADME, cell-based
[12] = tested on: HeLa; test: Reduction in mitochondrial ATP content in human HeLa cells expressing mitochondrially targeted Photinus pyralis luciferase at 1 uM in presence of 100 um histamine by luciferin-luciferase assay; assay type: ADME, cell-based
[13] = tested on: HeLa; test: Effect on mitochondrial morphology in human HeLa cells after 24 hrs by mtCherry staining based microscopic analysis; assay type: ADME, cell-based
[14] = tested on: HeLa; test: Binding affinity of F1F0-ATP synthase c subunit in human HeLa cells at 60 to 80 degC after 30 mins by cellular thermal shift assay; assay type: cell-based
[15] = Drug uptake in human HeLa cells mitochondrial fraction by HPLC-HRMS analysis; assay type: ADME, mitochondria, Mitochondria
[16] = Drug uptake in human HeLa cells endoplasmic reticulam fraction by HPLC-HRMS analysis; assay type: ADME, subcellular
[17] = Drug uptake in human HeLa cells cytosolic fraction by HPLC-HRMS analysis; assay type: ADME, subcellular; conditions: cytosol
[18] = species: Homo sapiens; test: Binding affinity of F1F0-ATP synthase c subunit in isolated mitochondria of human HeLa cells after 30 mins by UPLC-XEVO-TQD analysis
[19] = Drug uptake in human HeLa cells mitochondrial fraction assessed as retention time by HPLC-HRMS analysis; assay type: ADME, mitochondria, Mitochondria
[20] = target: ATP synthase F(1) complex subunit alpha, mitochondrial (Homo sapiens) (UniProt P25705); test: Binding affinity of ATP5A in human HeLa cells assessed as melting temperature after 30 mins by cellular thermal shift assay; assay type: cell-based
ATP synthase F(1) complex subunit alpha, mitochondrial (Homo sapiens), sequence (P25705 whole entry, one chain of several): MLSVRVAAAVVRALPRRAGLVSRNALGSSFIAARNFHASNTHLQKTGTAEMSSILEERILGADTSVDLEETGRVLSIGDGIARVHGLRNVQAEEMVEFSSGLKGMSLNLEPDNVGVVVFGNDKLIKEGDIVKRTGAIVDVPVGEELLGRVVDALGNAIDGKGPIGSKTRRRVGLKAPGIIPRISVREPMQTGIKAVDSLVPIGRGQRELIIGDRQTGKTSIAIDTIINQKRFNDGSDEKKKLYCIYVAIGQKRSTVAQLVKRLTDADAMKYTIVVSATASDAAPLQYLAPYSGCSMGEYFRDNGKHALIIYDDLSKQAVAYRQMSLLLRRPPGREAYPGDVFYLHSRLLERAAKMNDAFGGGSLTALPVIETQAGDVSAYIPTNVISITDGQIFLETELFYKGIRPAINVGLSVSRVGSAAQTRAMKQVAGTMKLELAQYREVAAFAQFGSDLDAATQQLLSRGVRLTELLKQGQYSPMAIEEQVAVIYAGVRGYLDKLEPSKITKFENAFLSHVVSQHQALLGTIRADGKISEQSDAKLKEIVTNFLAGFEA

[21] = tested on: HeLa; test: Inhibition of F1F0-ATP synthase subunit C in human HeLa cells assessed as enzyme dimerization by measuring mitochondrial permeability transition at 1 uM by PLA based assay; assay type: cell-based
[22] = tested on: Heart; test: Cardioprotective activity in Langendorff perfused Wistar rat heart model of ischemia-reperfusion injury model assessed as increase left ventricular developed pressure at 10 uM dosed during first 10 mins reflow; assay type: functional
[23] = tested on: Heart; test: Cardioprotective activity in Langendorff perfused Wistar rat heart model of ischemia-reperfusion injury model assessed as reduction of coronary perfusion pressure at 10 uM dosed during first 10 mins reflow; assay type: functional; parameters: scale not given: the % may be the effect or the level left
[24] = tested on: Heart; test: Cardioprotective activity in Langendorff perfused Wistar rat heart model of ischemia-reperfusion injury model assessed as reduction of end diastolic pressure at 10 uM dosed during first 10 mins reflow; assay type: functional; parameters: scale not given: the % may be the effect or the level left
[25] = tested on: Heart; test: Cardioprotective activity in Langendorff perfused Wistar rat heart model of ischemia-reperfusion injury model assessed as reduction of apoptosis at 10 uM dosed during first 10 mins reflow by TUNEL assay; assay type: functional

Structure (SMILES): CC(C)c1ccc(N2CNC(=O)C23CCN(Cc2ccccc2)CC3)cc1
inhibition [1]: 20%

Structure (SMILES): COc1ccc(N2CNC(=O)C23CCN(Cc2ccccc2)CC3)cc1
inhibition [1]: 26.2%

Structure (SMILES): O=C(NC1CCCCC1)N1CCC2(CC1)C(=O)NCN2c1ccccc1
inhibition [1]: 51.3%

inhibition [2]: Active
Structure (SMILES): O=C1N=CN(c2ccc(Cl)cc2)C12CCN(Cc1ccccc1)CC2
inhibition [1]: 57.4%
Activity [3]: Non-Toxic
Activity [4]: Non-Toxic
Activity [5]: Non-Toxic
Activity [6]: Non-Toxic
Activity [7]: Non-Toxic
Activity [8]: Toxic
inhibition [9]: Active
inhibition [10]: Active
Activity [11]: Toxic
Activity [12]: Non-Toxic
Activity [13]: Non-Toxic

Structure (SMILES): CC(C)c1ccc(N2C=NC(=O)C23CCN(Cc2ccccc2)CC3)cc1
inhibition [1]: 6.5%

Structure (SMILES): O=C1NCN(c2ccc(Cl)cc2)C12CCN(Cc1ccccc1)CC2
inhibition [1]: 51.4%

inhibition [2]: Active
Drug uptake [15]: Active
Drug uptake [16]: Not Active
Drug uptake [17]: Not Active
Activity [18]: Active
Retention_time [19]: 8.2 min
Activity [20]: inactive
Structure (SMILES): Cc1ccc(S(=O)(=O)N2CCC3(CC2)C(=O)NCN3c2ccccc2)cc1
Activity [14]: Active
inhibition [1]: 30.7 to 50%
Activity [11]: Toxic
Activity [12]: Toxic

Structure (SMILES): O=C1NCN(c2ccccc2)C12CCN(S(=O)(=O)c1ccc(F)cc1)CC2
inhibition [1]: 45.5%

Structure (SMILES): CS(=O)(=O)N1CCC2(CC1)C(=O)NCN2c1ccccc1
inhibition [1]: 47.5%

Structure (SMILES): O=C(Nc1ccccc1)N1CCC2(CC1)C(=O)NCN2c1ccccc1
inhibition [1]: inactive

Structure (SMILES): O=C1N=CN(c2ccc(F)cc2)C12CCN(Cc1ccccc1)CC2
inhibition [1]: 28.8%

Structure (SMILES): CCC1/C=C/C=C/C[C@H](C)[C@@H](O)[C@](C)(O)C(=O)[C@@H](C)[C@H](O)[C@@H](C)C(=O)[C@H](C)[C@@H](O)[C@H](C)/C=C/C(=O)OC2[C@@H](C)C(CC1)OC1(CC[C@@H](C)C(C[C@H](C)O)O1)[C@@H]2C (stereo not given in full)
Drug uptake [15]: Active
Drug uptake [16]: Active
Drug uptake [17]: Active

Structure (SMILES): O=C1NCN(c2cccc(C(F)(F)F)c2)C12CCN(Cc1ccccc1)CC2
inhibition [1]: 65.5%
inhibition [2]: Active
Activity [3]: Non-Toxic
Activity [4]: Non-Toxic
Activity [5]: Non-Toxic
Activity [6]: Non-Toxic
Activity [7]: Non-Toxic
Activity [8]: Toxic
inhibition [9]: Active
inhibition [10]: Active
inhibition [21]: Active
Activity [11]: Non-Toxic
Activity [12]: Non-Toxic
Activity [13]: Non-Toxic

Structure (SMILES): Cc1ccc(N2C=NC(=O)C23CCN(Cc2ccccc2)CC3)cc1
inhibition [1]: 18.7%

Structure (SMILES): CC(=O)N1CCC2(CC1)C(=O)NCN2c1ccccc1
inhibition [1]: 47.9%

inhibition [2]: Active
Structure (SMILES): O=C1NCN(c2ccccc2)C12CCN(S(=O)(=O)c1ccc(Cl)s1)CC2
inhibition [1]: 66.8%
Activity [3]: Non-Toxic
Activity [4]: Non-Toxic
Activity [5]: Non-Toxic
Activity [6]: Non-Toxic
Activity [7]: Non-Toxic
Activity [8]: Toxic
inhibition [9]: Active
inhibition [10]: Active
inhibition [21]: Active
Activity [22]: 36.4%
Activity [23]: 17.5%
Activity [24]: 72%
Activity [25]: Active
Activity [11]: Non-Toxic
Activity [12]: Non-Toxic
Activity [13]: Non-Toxic

Structure (SMILES): O=C1N=CN(c2cccc(C(F)(F)F)c2)C12CCN(Cc1ccccc1)CC2
inhibition [1]: 32.1%

Structure (SMILES): O=C1NCN(c2ccccc2)C12CCN(C(=S)NC1CCCCC1)CC2
inhibition [1]: 33.6%

Structure (SMILES): COc1ccc(N2C=NC(=O)C23CCN(Cc2ccccc2)CC3)cc1
inhibition [1]: 43.8%

Structure (SMILES): O=C1N=CN(c2ccccc2)C12CCN(Cc1ccccc1)CC2
inhibition [1]: 41.4%

Structure (SMILES): O=C1NCN(c2ccccc2)C12CCN(Cc1ccccc1)CC2
inhibition [1]: 36.8%

Structure (SMILES): O=C1NCN(c2ccc(F)cc2)C12CCN(Cc1ccccc1)CC2
inhibition [1]: 42.9%

Structure (SMILES): O=C1NCN(c2ccc(F)cc2)C12CCN(S(=O)(=O)c1ccc(F)cc1)CC2
inhibition [1]: 9.1%

Structure (SMILES): O=C(c1ccccc1)N1CCC2(CC1)C(=O)NCN2c1ccccc1
inhibition [1]: 43.9%

Structure (SMILES): Cc1ccc(N2CNC(=O)C23CCN(Cc2ccccc2)CC3)cc1
inhibition [1]: 18.1%

Structure (SMILES): O=C1NCN(c2ccc(F)cc2)C12CCN(S(=O)(=O)c1ccc(Cl)s1)CC2
inhibition [1]: 12.6%

Source: ChEMBL document CHEMBL4152345, “Discovery of Novel 1,3,8-Triazaspiro[4.5]decane Derivatives That Target the c Subunit of F1/FO-Adenosine Triphosphate (ATP) Synthase for the Treatment of Reperfusion Damage in Myocardial Infarction” (J Med Chem, 2018)
